In patent US20240218022A1, “ANTI-VISTA MACROCYCLIC PEPTIDES AND COMPOSITIONS” (BRISTOL-MYERS SQUIBB COMPANY, priority 2022, published 2024):
Starred links: 1 amine or outer side, 2 acyl side, 3 side chain; linkers in the order of their positions; H or OH if unused. Positions of bridges follow the written chain, without caps; N, C: chain ends. Non-standard residues stand in square brackets, D forms with d. Residues, ends and D or L forms follow the SMILES beside them. ξ: configuration not given here. Phe(2,4-F2) = N[C@@H](Cc1ccc(F)cc1F)C(=O)O; Phe(3-Me) = Cc1cccc(C[C@H](N)C(=O)O)c1; γGlu = O=C(O)[C@H](CCC(=O)[*:2])N[*:1]; 2Nal = N[C@@H](Cc1ccc2ccccc2c1)C(=O)O; βAsp = O=C(O)[C@H](CC(=O)[*:2])N[*:1]; Ile(3ξ) = CCC(C)[C@H](N)C(=O)O; Ahp(2) = CCCCC[C@H](N)C(=O)O; NMeNle = CCCC[C@H](NC)C(=O)O; Tle = CC(C)(C)[C@H](N)C(=O)O; NHexGly = CCCCCCNCC(=O)O; NMeA = CN[C@@H](C)C(=O)O; Nle = CCCC[C@H](N)C(=O)O; Aun = NCCCCCCCCCCC(=O)O; Dab = NCC[C@H](N)C(=O)O; Nva = CCC[C@H](N)C(=O)O; Dap = NC[C@H](N)C(=O)O; AEEA = NCCOCCOCC(=O)O; ξS = NC(CO)C(=O)O

What follows are molecules tested against T1, mouse VISTA (mVISTA) (Mus musculus, UniProt Q9D659) (assay: Cell-Based Binding High-Content Assay For mVISTA (HC CBA mVISTA)). Conditions: 293T cells expressing mouse VISTA; competition with biotinylated peptide (2 nM); read-out: CBA mVISTA IC50.
T1 construct: expressed in transfected cells; host or cells: Human embryonic kidney 293T cells
T1 sequence (Q9D659 33-308): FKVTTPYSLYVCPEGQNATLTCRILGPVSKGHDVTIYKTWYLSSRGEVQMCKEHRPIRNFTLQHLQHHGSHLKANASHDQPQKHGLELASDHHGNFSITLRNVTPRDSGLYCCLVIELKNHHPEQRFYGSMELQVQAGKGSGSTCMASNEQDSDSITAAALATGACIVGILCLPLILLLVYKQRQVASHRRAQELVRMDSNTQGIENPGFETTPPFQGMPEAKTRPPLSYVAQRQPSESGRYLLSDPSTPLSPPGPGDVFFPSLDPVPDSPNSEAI
In short: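 293T cells expressing mouse VISTA, with compounds added either after seeding ("no wash") or before seeding and then washed out after 1 h. Biotinylated peptide 2 nM for 30 min at room temperature, then detection with Alexa 647–streptavidin. After fixation with Hoechst stain, plates were high-content imaged; IC50 from four-parameter logistic fit.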

Row | IC50 [nM] | SMILES
1 | 9.7 | CCCCCCN1CC(=O)N[C@@H](Cc2ccc(O)cc2)C(=O)N[C@@H](CCCCC)C(=O)N[C@@H](CC(=O)O)C(=O)N[C@@H](CCCNC(=N)N)C(=O)N(C)[C@@H](CCCC)C(=O)N[C@@H](CCCCC)C(=O)N2CCC[C@H]2C(=O)N[C@@H](C(C)C)C(=O)N[C@@H](CC(=O)O)C(=O)N[C@H](C(=O)N[C@@H](CC(=O)O)C(N)=O)CSCC(=O)N[C@@H](Cc2ccccc2)C(=O)N[C@@H](Cc2ccc(O)cc2)C(=O)N[C@@H](CC(=O)O)C1=O [Example 1074] ({CH2CO}-FYD[NHexGly]Y[Ahp(2)]DR[NMeNle][Ahp(2)]PVDCD-NH2; thioether N-14)

Same assay, conditions: 293T cells expressing mouse VISTA; competition with biotinylated peptide (2 nM); read-out: HC CBA mVISTA IC50

Row | IC50 [nM] | SMILES
2 | 22.5 | CCCCCCN1CC(=O)N[C@@H](Cc2ccc(O)cc2)C(=O)N[C@@H](CCCC)C(=O)N[C@@H](CC(N)=O)C(=O)N[C@@H](CCCNC(=N)N)C(=O)N[C@@H](CC(C)C)C(=O)N[C@@H](CCCCC)C(=O)N2CCC[C@H]2C(=O)N[C@@H](C(C)C)C(=O)N[C@@H](CC(=O)O)C(=O)N[C@H](C(=O)NCC(=O)O)CSCC(=O)N[C@@H](Cc2ccccc2)C(=O)N[C@@H](Cc2ccc(O)cc2)C(=O)N[C@@H](CC(=O)O)C1=O [Example 1020] ({CH2CO}-FYD[NHexGly]Y[Nle]NRL[Ahp(2)]PVDCG-OH; thioether N-14)
3 | 16.7 | CCCCCCN1CC(=O)N[C@@H](Cc2ccc(O)cc2)C(=O)N[C@@H](CCCC)C(=O)N[C@@H](CC(N)=O)C(=O)N[C@@H](CCCNC(=N)N)C(=O)N[C@@H](CC(C)C)C(=O)N[C@@H](CCCCC)C(=O)N2CCC[C@H]2C(=O)N[C@@H](C(C)C)C(=O)N[C@@H](CO)C(=O)N[C@H](C(=O)NCC(N)=O)CSCC(=O)N[C@@H](Cc2ccccc2)C(=O)N[C@@H](Cc2ccc(O)cc2)C(=O)N[C@@H](CC(=O)O)C1=O [Example 1033] ({CH2CO}-FYD[NHexGly]Y[Nle]NRL[Ahp(2)]PVSCG-NH2; thioether N-14)
4 | 36.4 | CCCCCCN1CC(=O)N[C@@H](Cc2ccc(O)cc2)C(=O)N[C@@H](CCCCC)C(=O)N[C@@H](CC(N)=O)C(=O)N[C@@H](CCN)C(=O)N[C@@H](CC(C)C)C(=O)N[C@@H](CCCCC)C(=O)N2CCC[C@H]2C(=O)N[C@@H](C(C)C)C(=O)N[C@@H](CO)C(=O)N[C@H](C(=O)NCC(N)=O)CSCC(=O)N[C@@H](Cc2ccccc2)C(=O)N[C@@H](Cc2ccc(O)cc2)C(=O)N[C@@H](CC(=O)O)C1=O [Example 1037] ({CH2CO}-FYD[NHexGly]Y[Ahp(2)]N[Dab]L[Ahp(2)]PVSCG-NH2; thioether N-14)
5 | 30.6 | CCCCCCN1CC(=O)N[C@@H](Cc2ccc(O)cc2)C(=O)N[C@@H](CCCC)C(=O)N[C@@H](CC(=O)O)C(=O)N[C@@H](CCCNC(=N)N)C(=O)N[C@@H](CC(C)C)C(=O)N[C@@H](CCCCC)C(=O)N2CCC[C@H]2C(=O)N[C@@H](C(C)C)C(=O)N[C@@H](CC(C)C)C(=O)N[C@H](C(=O)NCC(=O)O)CSCC(=O)N[C@@H](Cc2ccccc2)C(=O)N[C@@H](Cc2ccc(O)cc2)C(=O)N[C@@H](CC(=O)O)C1=O [Example 1025] ({CH2CO}-FYD[NHexGly]Y[Nle]DRL[Ahp(2)]PVLCG-OH; thioether N-14)
6 | 12.7 | CCCCCCN1CC(=O)N[C@@H](Cc2ccc(O)cc2)C(=O)N[C@@H](CCCC)C(=O)N[C@@H](CC(=O)O)C(=O)N[C@@H](CCCNC(=N)N)C(=O)N[C@@H](CC(C)C)C(=O)N[C@@H](CCCCC)C(=O)N2CCC[C@H]2C(=O)N[C@@H](C(C)C)C(=O)N[C@@H](CC(=O)O)C(=O)N[C@H](C(=O)N[C@@H](CCC(=O)O)C(N)=O)CSCC(=O)N[C@@H](Cc2ccccc2)C(=O)N[C@@H](Cc2ccc(O)cc2)C(=O)N[C@@H](CC(=O)O)C1=O [Example 1005] ({CH2CO}-FYD[NHexGly]Y[Nle]DRL[Ahp(2)]PVDCE-NH2; thioether N-14)

Same assay, conditions: cell-based binding high-content assay, mVISTA; read-out: HC CBA miPr ISTA IC50

Row | IC50 [nM] | SMILES
7 | 40.3 | CCCCCCN1CC(=O)N[C@@H](Cc2ccc(O)cc2)C(=O)N[C@@H](CCCC)C(=O)N[C@@H](CC(N)=O)C(=O)N[C@@H](CCCNC(=N)N)C(=O)N(C)[C@@H](CCCC)C(=O)N[C@@H](CCCCC)C(=O)N2CCC[C@H]2C(=O)N[C@@H](C(C)(C)C)C(=O)N[C@@H](CO)C(=O)N[C@H](C(=O)N[C@@H](CC(=O)NCCOCCOCC(=O)N[C@@H](CC(=O)O)C(=O)NCCOCCOCC(=O)NCCCCCCCCCCC(=O)O)C(=O)O)CSCC(=O)N[C@@H](Cc2cccc(C)c2)C(=O)N[C@@H](Cc2c[nH]c3ccccc23)C(=O)N[C@@H](CC(=O)O)C1=O [compound 2024] ({CH2CO}-[Phe(3-Me)]WD[NHexGly]Y[Nle]NR[NMeNle][Ahp(2)]P[Tle]SC[βAsp][AEEA]D[AEEA][Aun]-OH; thioether N-14)

Same assay, conditions: read-out: HC CBA mVISTA IC50

Row | IC50 [nM] | SMILES
8 | 4.5 | CCCCCCN1CC(=O)N[C@@H](Cc2ccc(O)cc2)C(=O)N[C@@H](CCCC)C(=O)N[C@@H](CC(N)=O)C(=O)N[C@@H](CCCNC(=N)N)C(=O)N[C@@H](CC(C)C)C(=O)N[C@@H](CCCCC)C(=O)N2CCC[C@H]2C(=O)N[C@@H](C(C)C)C(=O)N[C@@H](CC(=O)O)C(=O)N[C@H](C(=O)NCC(=O)O)CSCC(=O)N[C@@H](Cc2ccccc2)C(=O)N[C@@H](Cc2cccc(C)c2)C(=O)N[C@@H](CC(=O)O)C1=O [compound 1329] ({CH2CO}-F[Phe(3-Me)]D[NHexGly]Y[Nle]NRL[Ahp(2)]PVDCG-OH; thioether N-14)
9 | 15.9 | CCCCCCN1CC(=O)N[C@@H](Cc2ccc(O)cc2)C(=O)N[C@@H](CC(C)C)C(=O)N[C@@H](CC(N)=O)C(=O)N[C@@H](CCCNC(=N)N)C(=O)N[C@@H](CC(C)C)C(=O)N[C@@H](CCCCC)C(=O)N2CCC[C@H]2C(=O)N[C@@H](C(C)C)C(=O)N[C@@H](CO)C(=O)N[C@H](C(=O)N[C@@H](CCC(=O)NCCCCCCCCCCC(=O)O)C(=O)O)CSCC(=O)N[C@@H](Cc2ccccc2)C(=O)N[C@@H](Cc2ccc(O)cc2)C(=O)N[C@@H](CC(=O)O)C1=O [Example 2127] ({CH2CO}-FYD[NHexGly]YLNRL[Ahp(2)]PVSC[γGlu][Aun]-OH; thioether N-14)
10 | 36.9 | CCCCCCN1CC(=O)N[C@@H](Cc2ccc(O)cc2)C(=O)N[C@@H](CCC)C(=O)N[C@@H](CC(N)=O)C(=O)N[C@@H](CCCNC(=N)N)C(=O)N(C)[C@@H](CCCC)C(=O)N[C@@H](CCCCC)C(=O)N2CCC[C@H]2C(=O)N[C@@H](C(C)(C)C)C(=O)N[C@@H](CO)C(=O)N[C@H](C(=O)NCCOCCOCC(=O)N[C@@H](CCC(=O)NCCOCCOCC(=O)NCCCCCCCCCCC(=O)O)C(=O)O)CSCC(=O)N[C@@H](Cc2ccccc2)C(=O)N[C@@H](Cc2c[nH]c3ccccc23)C(=O)N[C@@H](CC(=O)O)C1=O [compound 2258] ({CH2CO}-FWD[NHexGly]Y[Nva]NR[NMeNle][Ahp(2)]P[Tle]SC[AEEA][γGlu][AEEA][Aun]-OH; thioether N-14)
11 | 11.5 | CCCCCCN1CC(=O)N[C@@H](Cc2ccc(O)cc2)C(=O)N[C@@H](CCCC)C(=O)N[C@@H](CC(N)=O)C(=O)N[C@@H](CCCNC(=N)N)C(=O)N(C)[C@@H](CCCC)C(=O)N[C@@H](CCCCC)C(=O)N2CCC[C@H]2C(=O)N[C@@H](C(C)C)C(=O)N[C@@H](CC(=O)O)C(=O)N[C@H](C(=O)N[C@@H](CN)C(=O)N[C@@H](CC(N)=O)C(=O)O)CSCC(=O)N[C@@H](Cc2ccccc2)C(=O)N[C@@H](Cc2c[nH]c3ccccc23)C(=O)N[C@@H](CC(=O)O)C1=O [compound 1133] ({CH2CO}-FWD[NHexGly]Y[Nle]NR[NMeNle][Ahp(2)]PVDC[Dap]N-OH; thioether N-14)
12 | 16.1 | CCCCCCN1CC(=O)N[C@@H](Cc2ccc(O)cc2)C(=O)N[C@@H](CCCCC)C(=O)N[C@@H](CC(N)=O)C(=O)N[C@@H](CCCNC(=N)N)C(=O)N(C)[C@@H](CCCC)C(=O)N[C@@H](CCCCC)C(=O)N2CCC[C@H]2C(=O)N[C@@H](C(C)C)C(=O)N[C@@H](CC(=O)O)C(=O)N[C@H](C(=O)NC(CO)C(=O)O)CSCC(=O)N[C@@H](Cc2ccc3ccccc3c2)C(=O)N[C@@H](Cc2ccc(F)cc2F)C(=O)N[C@@H](CC(=O)O)C1=O (some centres unmarked) [compound 1202] ({CH2CO}-[2Nal][Phe(2,4-F2)]D[NHexGly]Y[Ahp(2)]NR[NMeNle][Ahp(2)]PVDC[ξS]-OH; thioether N-14)
13 | 6.4 | CCCCCCN1CC(=O)N[C@@H](Cc2ccc(O)cc2)C(=O)N[C@@H](CCCC)C(=O)N[C@@H](CC(N)=O)C(=O)N[C@@H](CCCNC(=N)N)C(=O)N(C)[C@@H](CCCC)C(=O)N[C@@H](CCCCC)C(=O)N2CCC[C@H]2C(=O)N[C@@H](C(C)C)C(=O)N[C@@H](CC(=O)O)C(=O)N[C@H](C(=O)N[C@@H](CO)C(=O)O)CSCC(=O)N[C@@H](Cc2ccccc2)C(=O)N[C@@H](Cc2c[nH]c3ccccc23)C(=O)N[C@@H](CC(=O)O)C1=O [Example 1406] ({CH2CO}-FWD[NHexGly]Y[Nle]NR[NMeNle][Ahp(2)]PVDCS-OH; thioether N-14)
14 | 28.8 | CCCCCCN1CC(=O)N[C@@H](Cc2ccc(O)cc2)C(=O)N[C@@H](CCCC)C(=O)N[C@@H](CC(N)=O)C(=O)N[C@@H](CCCNC(=N)N)C(=O)N(C)[C@@H](CCCC)C(=O)N[C@@H](CCCCC)C(=O)N(C)[C@@H](C)C(=O)N[C@@H](C(C)CC)C(=O)N[C@@H](CO)C(=O)N[C@H](C(=O)N[C@@H](CC(=O)NCCOCCOCC(=O)NCCCCCCCCCCC(=O)O)C(=O)O)CSCC(=O)N[C@@H](Cc2ccccc2)C(=O)N[C@@H](Cc2c[nH]c3ccccc23)C(=O)N[C@@H](CC(=O)O)C1=O (some centres unmarked) [Example 2171] ({CH2CO}-FWD[NHexGly]Y[Nle]NR[NMeNle][Ahp(2)][NMeA][Ile(3ξ)]SC[βAsp][AEEA][Aun]-OH; thioether N-14)
